Source: BindingDB's records for patent US12570614 (Glaxosmith Kline, 2026)

Target: Tyrosine-protein kinase JAK2 (Homo sapiens, UniProt O60674)
Assay: Enzyme Screening Assay
Protocol: Alphascreen phosphotyrosine acceptor beads followed by streptavidin donor beads at a concentration of 1/100 in stop buffer were added to each well under subdued light and incubated for 2-3 hours. The Alphascreen plates were read on a Packard Fusion Alpha instrument

Sequence of Tyrosine-protein kinase JAK2 (O60674 whole entry): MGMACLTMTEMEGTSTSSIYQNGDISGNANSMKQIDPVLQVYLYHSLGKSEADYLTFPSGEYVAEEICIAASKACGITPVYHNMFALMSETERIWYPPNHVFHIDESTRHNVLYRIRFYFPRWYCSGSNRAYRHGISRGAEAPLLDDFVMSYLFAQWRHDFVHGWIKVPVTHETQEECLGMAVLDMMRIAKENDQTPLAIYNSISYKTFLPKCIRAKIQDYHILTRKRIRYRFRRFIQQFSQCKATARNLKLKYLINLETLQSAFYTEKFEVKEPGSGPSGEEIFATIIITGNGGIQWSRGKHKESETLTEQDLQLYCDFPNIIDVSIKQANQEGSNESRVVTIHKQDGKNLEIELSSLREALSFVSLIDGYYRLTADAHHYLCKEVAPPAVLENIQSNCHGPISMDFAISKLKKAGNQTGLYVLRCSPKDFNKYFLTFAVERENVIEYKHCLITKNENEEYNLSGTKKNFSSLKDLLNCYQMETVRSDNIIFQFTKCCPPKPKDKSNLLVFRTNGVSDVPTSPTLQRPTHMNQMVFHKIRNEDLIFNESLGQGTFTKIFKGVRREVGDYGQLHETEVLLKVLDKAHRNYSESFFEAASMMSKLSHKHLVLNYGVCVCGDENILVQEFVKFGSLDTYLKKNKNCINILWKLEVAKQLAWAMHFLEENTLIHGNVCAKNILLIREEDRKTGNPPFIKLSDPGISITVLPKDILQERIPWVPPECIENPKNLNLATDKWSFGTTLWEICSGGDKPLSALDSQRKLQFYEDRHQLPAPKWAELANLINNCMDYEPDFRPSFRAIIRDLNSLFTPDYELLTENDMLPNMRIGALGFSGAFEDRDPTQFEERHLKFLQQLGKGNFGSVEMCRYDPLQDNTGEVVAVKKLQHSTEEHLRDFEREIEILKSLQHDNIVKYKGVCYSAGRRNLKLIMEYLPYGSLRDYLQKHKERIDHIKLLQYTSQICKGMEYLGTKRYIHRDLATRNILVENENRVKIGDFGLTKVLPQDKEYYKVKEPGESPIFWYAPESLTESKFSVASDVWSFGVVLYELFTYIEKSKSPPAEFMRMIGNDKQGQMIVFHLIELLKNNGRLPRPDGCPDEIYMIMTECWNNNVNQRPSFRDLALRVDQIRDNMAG

IC50: < 1000 nM
SMILES: CCN1CCC(OC2CCC(Nc3nccc(-c4ccc(C(=O)NCC#N)cc4)n3)CC2)CC1 (stereo unspecified) [US12570614, Compound 80]
